Measurements: patent US9849194B2, “Compositions and methods for imaging and treatment” (New York University, priority 2014, dated 2017)

Legend:
[1] = test system: HCT116 cells; test: In vitro cytotoxicity assay, CellTiter-Blue; type: cell-based, human
Method: In vitro cytotoxicity assay. Cell viability was evaluated using the Promega CellTiter-Blue® Cell Viability assay. It uses the indicator dye resazurin to measure the metabolic capacity of cells—an indicator of cell viability. Viable cells retain the ability to reduce resazurin into resorufin, which is highly fluorescent. […] HCT116 cells were seeded at a density of 5×10^4 cells per well in 96-well flat-bottom plates and incubated in 10% FBS-medium for 24 hours. […] After 24 hours incubation, cells were washed with phosphate buffered saline (PBS, Amresco Biotechnolgy grade) and incubated with 20 μL of CellTiter-Blue® Reagent for additional 6 hours at 37° C. The fluorescence corresponding to the resorufin (which reflects the relative viable cell number) was measured at 590 nm using a Synergy H1 Hybrid Reader Biotek. The measurement was performed on untreated cells as a blank control.

[2] = test system: HeLa cells; test: In vitro cellular uptake in HeLa cells (fluorescence microscopy); type: cell-based
[3] = test system: HeLa cells; test: In vitro hyperthermia treatment, HeLa cell viability; type: cell-based; details: 2 hours incubation, with or without hyperthermia treatments
Method: Cell viability tests in presence and in absence of AMF were performed in order to evaluate the effect of combined treatments (hyperthermia and chemotherapy) on HeLa cell viability (FIG. 31). Hela cells were incubated for two hours with no additives, Dox, CB[7]NPs or Dox-CB[7]NPs. Selected samples were then subjected to an alternating magnetic field (464 kHz) for one hour. […] The lack of significant cytotoxicity in the cells incubated with Dox or CB[7]NPs is consistent with the limited cellular uptake of the free drug or the lack of toxicity of the nanocarrier respectively.
In vitro hyperthermia treatment. Viability tests on HeLa cells were performed to investigate the combined effect of both hyperthermia and chemotherapy treatment. Petri-dishes were seeded with HeLa cells (˜50000 cells/mL) and incubated at 37° C. After 24 hours, DMEM was removed, replaced with the following solutions: DMEM (control), Dox ([Dox]=76 μM) and Dox-CB[7]NPs ([Dox]=76 μM, [Iron]=0.04 M) and incubated for 2 hours. […] Two cell viability readings were taken, immediately after hyperthermia treatment and 18 hours after hyperthermia. For cell viability studies 200 μL of CTB per 1 mL of DMEM was added to each petri-dish and incubated for 6 hours after which the medium with CTB was transferred to 96 well plate to take the fluorescence reading.

[4] = test system: HeLa cells; test: Morphology of HeLa cells after hyperthermia and chemotherapy; type: cell-based; details: one-hour hyperthermia, confocal microscopy
Method: Morphology of the cells after hyperthermia and chemotherapy. To assess changes in cell morphology, HeLa cells (˜50000 cells/mL) were cultured in petri-dishes and incubated at 37° C. After 24 hours, DMEM was removed, replaced with the following solutions: DMEM (control), Dox ([Dox]=76 μM) and Dox-CB[7]NPs ([Dox]=76 μM, [Iron]=0.04 M) and incubated for 2 hours. After the treatment, the cells were washed with PBS 3 times and 1 mL of DMEM was added. One petri-dish from each condition was subjected to one hour of magnetic hyperthermia (frequency=464 kHz, current=26.8 kAm^−1) while other petri-dishes were used as control.
After magnetic hyperthermia treatment, DMEM was removed, the cells were washed with PBS three times and 1 ml of prepared formaldehyde solution (Vformaldehyde=1 mL, Vdistilled water=9 mL) was added to the cells for […] to fix them. After removal of formaldehyde solution the cells were allowed to dry at room temperature for 48 hours in a dark place to prevent photodegradation of Dox. Confocal microscopy used observe changes in the morphology of treated cells compared to control cells.

[5] = test system: HCT116 cells; test: cells; details: Homo sapiens, HCT-116, 48 h
Method: In order to determine the effectiveness of our nanoparticle system, we conducted a cancer cell viability study on our nanoparticle-drug system and compared it to effectiveness of the free drug (without the NP system). The Promega CellTiter-Blue® Cell Viability Assay was used. The drug, in one condition, and the Drug-NP complex, in another, were incubated with HCT-116 colon cancer cells for 48 hours. Different concentrations of the drug were used (ranging from 0 nM to 500 nM). After the designated incubation time, the IC50—the concentration of the drug needed to inhibit 50% of the cancer cells incubated—was then measured for both conditions.

Molecule: cucurbit[7]uril [CB[7]]
- cytotoxic effects ([1]; 24 hours of incubation, concentrations as high as 100 μM): Neither CB[7] nor CB[7]NPs displayed cytotoxic effects
- cytotoxic effects ([1]; CB[7] concentrations of 1 to 100 μM, 24 hour incubation): neither CB[7] nor CB[7]NPs elicit cytotoxic effects

Molecule: COc1cccc2c1C(=O)c1c(O)c3c(c(O)c1C2=O)C[C@@](O)(C(=O)CO)C[C@@H]3O[C@H]1C[C@H](N)[C@H](O)[C@H](C)O1 [Dox, Doxorubicin]
- fluorescence of treated cells ([2]; 2 hours, [DOX]=10 μM): weakly fluorescent
- normalized fluorescence intensity relative to red emission of Dox-CB[7]NPs ([2]; 3 hours at 37° C., same dose of Dox, excitation at 488 nm): 40%
- reduction in viability [3]: Minimal reductions in viability
- cell morphology after hyperthermia session [4]: normal morphology

Molecule: CC(=O)O[C@H]1C(=O)[C@@]2(C)[C@H]([C@H](OC(=O)c3ccccc3)[C@]3(O)C[C@H](OC(=O)[C@H](O)[C@@H](NC(=O)c4ccccc4)c4ccccc4)C(C)=C1C3(C)C)[C@]1(OC(C)=O)CO[C@@H]1C[C@@H]2O [Paclitaxel]
- IC50 [5]: 71 nM
